Measured values reported in paper PMC11051924, “Design, Synthesis, and Biological Evaluation of Novel Tetrahydroacridin Hybrids with Sulfur-Inserted Linkers as Potential Multitarget Agents for Alzheimer’s Disease” (Molecules, 2024).
Entries after “also recorded” stand apart in the source; their conditions may differ. Where two headings read alike, the source gives them in different places.

Legend:
[1] = target: T1, AChE (Electrophorus electricus, UniProt O42275); experiment: biochemical; design: species or system electric eel
T1 sequence (O42275 24-633): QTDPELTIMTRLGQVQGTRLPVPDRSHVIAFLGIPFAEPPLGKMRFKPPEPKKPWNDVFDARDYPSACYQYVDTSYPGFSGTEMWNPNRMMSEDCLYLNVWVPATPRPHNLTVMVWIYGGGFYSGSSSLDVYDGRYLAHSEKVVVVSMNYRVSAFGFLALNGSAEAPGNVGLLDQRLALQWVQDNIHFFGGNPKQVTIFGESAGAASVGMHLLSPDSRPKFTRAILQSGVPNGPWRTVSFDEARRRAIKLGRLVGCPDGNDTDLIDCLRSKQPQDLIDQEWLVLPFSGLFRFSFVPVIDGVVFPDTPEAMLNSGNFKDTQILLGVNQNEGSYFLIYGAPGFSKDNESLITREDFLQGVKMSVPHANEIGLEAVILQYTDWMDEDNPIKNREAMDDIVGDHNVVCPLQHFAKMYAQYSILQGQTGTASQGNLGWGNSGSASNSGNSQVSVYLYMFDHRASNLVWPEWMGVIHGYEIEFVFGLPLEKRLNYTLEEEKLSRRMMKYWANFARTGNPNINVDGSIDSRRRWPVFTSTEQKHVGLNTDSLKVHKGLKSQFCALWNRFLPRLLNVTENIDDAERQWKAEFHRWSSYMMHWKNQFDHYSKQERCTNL
Method: The inhibitory activities of the compounds on AChE were determined by an Ellman assay. First, 20 μL of phosphate buffer was added to a 96-well plate. Then, compounds of different concentrations (20 μL), 100μL of 1mM DTNB, and 40 μL of AChE solution (2 U/mL) were added successively. The plate was incubated at 37 °C for 15 min. Briefly, 20 μL of acetylthiocholine iodide (1 mM) was added to the mixed solution. The plate was incubated at 25 °C for 20 min. The reaction was terminated by adding 3% SDS to each well. […] The inhibition of each compound was calculated using the formula (1 − Ai/Ac) × 100, where Ai and Ac represent the absorbance of the reaction mixture in the presence and absence of inhibitors, respectively. The IC50 values of all target compounds were calculated by using Graph Pad Prism 9.5.

[2] = target: T2, recombinant human GSK-3β (Homo sapiens, UniProt P49841); experiment: GSK-3β inhibition (luciferin kinase detection); format: biochemical
T2 construct: purchased
T2 sequence (P49841 whole entry): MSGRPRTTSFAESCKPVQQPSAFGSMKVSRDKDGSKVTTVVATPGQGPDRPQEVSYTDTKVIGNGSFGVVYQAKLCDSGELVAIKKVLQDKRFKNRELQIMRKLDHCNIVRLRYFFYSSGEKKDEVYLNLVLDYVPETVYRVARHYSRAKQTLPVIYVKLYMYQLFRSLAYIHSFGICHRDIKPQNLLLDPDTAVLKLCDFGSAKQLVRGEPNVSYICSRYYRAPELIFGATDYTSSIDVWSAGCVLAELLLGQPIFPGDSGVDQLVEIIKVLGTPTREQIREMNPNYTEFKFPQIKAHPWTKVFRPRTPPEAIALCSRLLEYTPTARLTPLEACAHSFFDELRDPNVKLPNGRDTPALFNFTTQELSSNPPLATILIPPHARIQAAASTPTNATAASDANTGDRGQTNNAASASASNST
Method: Add ATP and substrate polypeptide to the reaction template for GSK-3β under the most suitable enzyme reaction system and conditions, let the enzyme react with ATP and substrate polypeptide, and use luciferin kinase detection technology to detect enzyme activity. All the compounds to be tested were prepared by adding DMSO to a solution with a concentration of 10^−2 mol/L and diluted with PBS to the required concentration when used; the purchased GSK-3β was diluted from 1600 ng/μL to 2 ng/μL, ready for use.

[3] = test system: GSK-3β; conditions: cited from earlier work
[4] = target: T1, AChE; design: method as in PMID 34024109; conditions: value of the design leads (abstract, Figure 2); cited from earlier work
[5] = test system: HepG2 cells; experiment: Hepatotoxicity on HepG2 cells (MTT assay); format: cell-based; conditions: concentrations of up to 20 μM
Method: HepG2 cells were cultured in DMEM supplemented with 10% FBS and 100 U/mL of penicillin-streptomycin (Thermo, Waltham, MA, USA) at 37 °C in a humidified atmosphere containing 5% CO2.
HepG2 cells were seeded in 96-well plates at a density of 2 × 10^4 cells per well. After 24 h, different concentrations of tacrine or compound 18a (1 μM, 5 μM, 10 μM, and 20 μM) and DMSO were added to the wells. MTT assay was performed, and the survival percentage of cells was calculated.

[6] = test system: SH-SY5Y neuroblastoma cells; experiment: Cytotoxicity on SH-SY5Y cells (MTT assay); format: cell-based, human; conditions: concentrations of up to 25 μM
Method: SH-SY5Y cells were cultured in Dulbecco’s modified Eagle medium (DMEM) with F12 (KeyGEN BioTECH, Nanjing, China), supplemented with 10% (v/v) fetal bovine serum (FBS) (Sen Bei Jia) and antibiotics (penicillin streptomycin) (KeyGEN BioTECH, Nanjing, China). Cells were kept at 37 °C and 5% CO2 in a humidified atmosphere in a cell culture incubator and passaged twice a week.
The cytotoxicity assay on SH-SY5Y cells was the same as in our previous studies. Cells were seeded in a 96-well plate, and the medium was removed after 24 h. Compound 18a (3.125 μM, 6.25 μM, 12.5 μM, and 25 μM) was added to each well. After treatment for 24 h, 10 μL of 3-(4,5-dimethyl-2-thiazolyl)-2,5-diphenyl-2-H-tetrazolium bromide was added to each well. After incubation at 37 °C for 4 h, 100 μL of DMSO was added, and the absorbance of the mixture was determined at 590 nm using a microplate reader (FC/K3, Thermo, Waltham, MA, USA). We used the formula Ae/Ab 100% to calculate the survival rate, where Ae and Ab represent the absorbance in the presence and absence of the tested drugs. Each experiment was carried out three times in total.

[7] = target: T1, AChE; experiment: Kinetic study of AChE inhibition (Lineweaver–Burk); format: biochemical; conditions: Lineweaver–Burk plots; 0.02, 0.04, 0.08 μM inhibitor
Method: In 96-well plates, 20μL of PBS, compound 18a (20 μL) with three final concentrations (0.02 μM, 0.04 μM, and 0.08 μM), 20 μL of acetylthiocholine iodide (50–300 μM), and 40 μL of AChE (2 U/mL) were added successively. After incubation at 37 °C for 15 min, 100 μL of DTNB (1 mM) was added. A microplate reader (Thermo, Waltham, MA, USA) was used to record the absorbance at 405 nm. Lineweaver–Burk reciprocal plots were created by graphing 1/V vs. 1/[S] by using GraphPad Prism 9.5.

[8] = AChE from electric eel, mean of three independent determinations, read-out: IC50 (μM) ± SEM AChE
[9] = recombinant human GSK-3β, mean of three independent determinations, read-out: IC50 (μM) ± SEM GSK-3β

SMILES | IC50 [1, 8] [µM] | IC50 [2, 9] [µM] | also measured
Cn1c(NCCSSCCNc2c3c(nc4ccc(Cl)cc24)CCCC3)nc(-c2ccncc2)cc1=O [Compound 18c, 2-((2-((2-((7-Chloro-1,2,3,4-tetrahydroacridin-9-yl)amino)ethyl)disulfanyl)ethyl)amino)-3-methyl-6-(pyridin-4-yl)pyrimidin-4(3H)-one] | 2.24 ± 0.13 | 0.42 ± 0.03 | –
Cn1c(NCCCCCCCNc2c3c(nc4cc(Cl)ccc24)CCCC3)nc(-c2ccncc2F)cc1=O [Compound 7] | – | – | IC50 ([3]; previous hybrid compound 7): 89 nM; IC50 [4]: 51 nM
Cn1c(NCCSSCCNc2c3c(nc4cc(Cl)ccc24)CCCC3)nc(-c2ccncc2)cc1=O [Compound 18a, 2-((2-((2-((6-Chloro-1,2,3,4-tetrahydroacridin-9-yl)amino)ethyl)disulfanyl)ethyl)amino)-3-methyl-6-(pyridin-4-yl)pyrimidin-4(3H)-one] | 0.047 ± 0.002 | 0.93 ± 0.08 | hepatotoxicity on HepG2 cells [5]: no significant hepatotoxicity; toxicity to SH-SY5Y neuroblastoma cells [6]: lack of toxicity; also recorded: no toxicity; inhibition mode against AChE [7]: mixed type
Cn1c(SCCNc2c3c(nc4ccc(Br)cc24)CCCC3)nc(-c2ccncc2F)cc1=O [Compound 16e, 2-((2-((7-Bromo-1,2,3,4-tetrahydroacridin-9-yl)amino)ethyl)thio)-6-(3-fluoropyridin-4-yl)-3-methylpyrimidin-4(3H)-one] | 15.3 ± 0.9 | 0.94 ± 0.02 | –
Cc1nc(-c2ccncc2)cc(=O)[nH]1 [Compound 5] | – | – | IC50 ([3]; pyrimidone lead compound 5): 3000 nM
Cn1c(SCCNc2c3c(nc4cc(Cl)ccc24)CCCC3)nc(-c2ccncc2)cc1=O [Compound 16a, 2-((2-((6-Chloro-1,2,3,4-tetrahydroacridin-9-yl)amino)ethyl)thio)-3-methyl-6-(pyridin-4-yl)pyrimidin-4(3H)-one] | 2.3 ± 0.14 | 15.1 ± 0.9 | –
Cn1c(SCCNc2c3c(nc4ccc(Br)cc24)CCCC3)nc(-c2ccncc2)cc1=O [Compound 16b, 2-((2-((7-Bromo-1,2,3,4-tetrahydroacridin-9-yl)amino)ethyl)thio)-3-methyl-6-(pyridin-4-yl)pyrimidin-4(3H)-one] | 20 ± 1.5 | 38.5 ± 0.7 | –
Cn1c(SCCNc2c3c(nc4cc(Cl)ccc24)CCCC3)nc(-c2ccncc2F)cc1=O [Compound 16d, 2-((2-((6-Chloro-1,2,3,4-tetrahydroacridin-9-yl)amino)ethyl)thio)-6-(3-fluoropyridin-4-yl)-3-methylpyrimidin-4(3H)-one] | 1.89 ± 0.21 | 1.69 ± 0.09 | –
Cn1c(SCCNc2c3c(nc4ccc(Cl)cc24)CCCC3)nc(-c2ccncc2)cc1=O [Compound 16c, 2-((2-((7-Chloro-1,2,3,4-tetrahydroacridin-9-yl)amino)ethyl)thio)-3-methyl-6-(pyridin-4-yl)pyrimidin-4(3H)-one] | 10.3 ± 0.7 | 2.28 ± 0.07 | –
Cn1c(SCCNc2c3c(nc4ccc(Cl)cc24)CCCC3)nc(-c2ccncc2F)cc1=O [Compound 16f, 2-((2-((7-Chloro-1,2,3,4-tetrahydroacridin-9-yl)amino)ethyl)thio)-6-(3-fluoropyridin-4-yl)-3-methylpyrimidin-4(3H)-one] | – | – | IC50 [1]: 16.5 ± 0.8 µM; IC50 [2]: 2.44 ± 0.06 µM
Cn1c(NCCSSCCNc2c3c(nc4ccc(Br)cc24)CCCC3)nc(-c2ccncc2)cc1=O [Compound 18b, 2-((2-((2-((7-Bromo-1,2,3,4-tetrahydroacridin-9-yl)amino)ethyl)disulfanyl)ethyl)amino)-3-methyl-6-(pyridin-4-yl)pyrimidin-4(3H)-one] | 2.13 ± 0.11 | 0.37 ± 0.02 | –
